Results from patent US9474281B2, “Fungicidal composition and method for controlling plant diseases” (ISHIHARA SANGYO KAISHA, LTD., priority 2008, dated 2016).
“And” between values parts separate entries of the source, which are not always exact repeats. Identical values can stand only once.

How the values were obtained:
Sphaerotheca cucurbitae = experiment: Test on preventive effect against cucumber powdery mildew; format: in vivo; parameters: scale not given here; settings: applied alone
Experimental: Cucumber (cultivar: Suyo) was cultivated in a plastic pot having a diameter of 7.5 cm, and when it reached 1.5-leaf stage, 10 ml of a chemical solution having the compound of the present invention adjusted to a prescribed concentration, was applied by a spray gun. After the chemical solution dried, a suspension of conidia of Sphaerotheca cucurbitae was sprayed and inoculated and maintained in a constant temperature chamber at 20° C. From 9 to 10 days after the inoculation, the area of sporulation was investigated, and the disease rate was determined in the same manner as in Test Example 1, and the results are shown in Tables 5 to 20. The average lesion area in the non-treated plot was determined in the same manner as for the treated plot except that water was applied by a spray gun instead of the chemical solution.
Further, theoretical values by the Colby's formula are shown in brackets in Tables 5 to 20.

Erysiphe graminis = experiment: Test on preventive effect against wheat powdery mildew; format: in vivo; parameters: key: lesion area as % of non-treated plot: (treated/non-treated)×100; settings: applied alone
Experimental: Wheat (cultivar: Norin-61-go) was cultivated in a plastic pot having a diameter of 7.5 cm, and when it reached 1.5-leaf stage, 10 ml of a chemical solution having each test compound adjusted to a prescribed concentration, was applied by a spray gun in an amount of 1000 L/ha. After the chemical solution dried, conidia of Erysiphe graminis were dusted and inoculated and maintained in a constant temperature chamber at 20° C. From 6 to 8 days after the inoculation, the area of sporulation was investigated, and the disease rate was determined in accordance with the following formula, and the results are shown in Tables 1 to 4. The average lesion area in the non-treated plot was determined in the same manner as for the treated plot except that water was applied by a spray gun instead of the chemical solution. Disease rate=(a/b)×100
a: average lesion area in the treated plot
b: average lesion area in the non-treated plot
Theoretical values were calculated in accordance with the Colby's formula. The fungicidal composition of the present invention has a synergistic effect regarding the test on preventive effect against wheat powdery mildew, when the experimental value is lower than the theoretical value. Theoretical values by the Colby's formula in such cases are shown in brackets in Tables 1 to 4.

For `CC(=O)Oc1c(C)c(C)nc2c(F)cc(C(C)(C)C)cc12` [6-t-butyl-8-fluoro-2,3-dimethylquinolin-4-yl acetate], the Disease rate (Sphaerotheca cucurbitae; 6.3 ppm) was 83.6, the Disease rate (Sphaerotheca cucurbitae; 12.5 ppm) was 63.9 and the Disease rate (Sphaerotheca cucurbitae; 25 ppm) was 59.0. The Disease rate (Sphaerotheca cucurbitae; 50 ppm) was 34.4.
`O=C(Nc1ccccc1-c1ccc(Cl)cc1)c1cccnc1Cl` [Boscalid] showed a Disease rate (Sphaerotheca cucurbitae; 6.3 ppm) of 43.0, a Disease rate (Sphaerotheca cucurbitae; 12.5 ppm) of 43.0 and a Disease rate (Sphaerotheca cucurbitae; 25 ppm) of 25.8.
In the case of `COc1cc(C)c(C(=O)c2c(OC)ncc(Cl)c2C)c(OC)c1OC` [Compound No. 35, 3-(2,3,4-trimethoxy-6-methylbenzoyl)-5-chloro-2-methoxy-4-methylpyridine], the Disease rate (Erysiphe graminis; 0.8 ppm) is reported as 70 and 100, the Disease rate (Erysiphe graminis; 1.6 ppm) is reported as 70 and 100 and the Disease rate (Erysiphe graminis; 3.1 ppm) is reported as 100. The Disease rate (Erysiphe graminis; 6.3 ppm) was 60.
Compound `COc1cc(C)c(C(=O)c2c(Cl)cnc(Cl)c2C(F)(F)F)c(OC)c1OC` [Compound No. 39, 4-(2,3,4-trimethoxy-6-methylbenzoyl)-2,5-dichloro-3-trifluoromethylpyridine] has a Disease rate (Erysiphe graminis; 1.6 ppm) of 85, a Disease rate (Erysiphe graminis; 3.1 ppm) of 75 and a Disease rate (Erysiphe graminis; 6.3 ppm) of 60.
`COc1cc(C)c(C(=O)c2c(OC)cnc(Cl)c2C(F)(F)F)c(OC)c1OC` [Compound No. 40, 4-(2,3,4-trimethoxy-6-methylbenzoyl)-2-chloro-3-trifluoromethyl-5-methoxypyridine] gave a Disease rate (Erysiphe graminis; 0.8 ppm) of 50 and a Disease rate (Sphaerotheca cucurbitae; 1.6 ppm) of 43.0.
In the case of `CC1COC(Cn2cncn2)(c2ccc(Oc3ccc(Cl)cc3)cc2Cl)O1` (stereo not shown) [Difenoconazole], the Disease rate (Erysiphe graminis; 12.5 ppm) is reported as 85, the Disease rate (Erysiphe graminis; 25 ppm) is reported as 70 and the Disease rate (Erysiphe graminis; 50 ppm) is reported as 40.
`C/C=C/C(=O)Oc1c(C(C)CCCCCC)cc([N+](=O)[O-])cc1[N+](=O)[O-]` (stereo not shown) [Mepthyldinocap, Meptyldinocap] was tested, and the Disease rate (Sphaerotheca cucurbitae; 0.8 ppm) was 75, the Disease rate (Sphaerotheca cucurbitae; 1.6 ppm) was 60 and the Disease rate (Sphaerotheca cucurbitae; 3.1 ppm) was 60.
In the case of `CC(C)CC(C)c1sccc1NC(=O)c1cn(C)nc1C(F)(F)F` (stereo not shown) [Penthiopyrad], the Disease rate (Sphaerotheca cucurbitae; 0.4 ppm) is reported as 77.4, the Disease rate (Sphaerotheca cucurbitae; 0.8 ppm) is reported as 51.6 and the Disease rate (Sphaerotheca cucurbitae; 1.6 ppm) is reported as 17.2.
With `COC(=O)N(OC)c1ccccc1COc1ccn(-c2ccc(Cl)cc2)n1` [Pyraclostrobin] the Disease rate (Erysiphe graminis; 100 ppm) was 100, the Disease rate (Erysiphe graminis; 200 ppm) was 100 and the Disease rate (Erysiphe graminis; 400 ppm) was 100.
Compound `COC(=O)NCc1cc(/C(C)=N/OCc2cccc(C)n2)ccc1Cl` [Pyribencarb] has a Disease rate (Sphaerotheca cucurbitae; 12.5 ppm) of 73.0, a Disease rate (Sphaerotheca cucurbitae; 25 ppm) of 63.2 and a Disease rate (Sphaerotheca cucurbitae; 50 ppm) of 63.2.
`COc1ccccc1N1CCS/C1=C(/C#N)Sc1cc(C(F)(F)F)ccc1F` [flutianil] showed a Disease rate (Sphaerotheca cucurbitae; 0.0063 ppm) of 95, a Disease rate (Sphaerotheca cucurbitae; 0.0125 ppm) of 85 and a Disease rate (Sphaerotheca cucurbitae; 0.025 ppm) of 65.
In the case of `S1SSSSSSS1` [sulfur, Sulfur], the Disease rate (Sphaerotheca cucurbitae; 6.3 ppm) is reported as 98.0, the Disease rate (Sphaerotheca cucurbitae; 12.5 ppm) is reported as 88.2 and the Disease rate (Sphaerotheca cucurbitae; 25 ppm) is reported as 68.6.
For `CC1CCN(C2C(c3c(F)cc(F)cc3F)=C(Cl)N=C3N=CNN32)CC1` (stereo not shown) [the compound of the formula (II)], the Disease rate (Sphaerotheca cucurbitae; 0.8 ppm) was 88.1, the Disease rate (Sphaerotheca cucurbitae; 3.1 ppm) was 17.2 and the Disease rate (Sphaerotheca cucurbitae; 6.3 ppm) was 8.6.
